We go through 4 molecules from publication PMC7721803, “Development of a penem antibiotic against Mycobacteroides abscessus” (Communications Biology, 2020).

A word on the MIC: it is the least concentration at which growth counts as inhibited. What is called MIC50 is an inhibitory concentration at the 50% level, which refers to growth in some studies and to a panel of isolates in others. Usually MIC90 stands for an inhibitory concentration at the 90% level, which refers to growth in some studies and to a panel of isolates in others.

The conditions of data set [1]: cited from earlier work.
The next data set deals with M. abscessus. Put plainly: MIC by broth dilution method (Middlebrook 7H9). In kind it is cell-based, Mycobacteroides abscessus. Conditions: for MIC50 / MIC90: clinical M. abscessus strains of Table 1; for MIC50: read-out: MIC50; for MIC90: read-out: MIC90.
Another data set relates to M. abscessus ATCC 19977. In kind it is cell-based, Mycobacteroides abscessus. The note with it: drug alone at its individual MIC (T405 2 µg/mL, imipenem 8 µg/mL).
The nature of another data set: in vivo. Also noted: species or system BALB/c mice. The note with it: female, BALB/c, mouse, 25 mg/kg, T405 concentration in blood. The method, then: All procedures involving mice were approved by the Animal Care and Use Committee of Johns Hopkins University. […] Blood was sampled from three mice per group per time point by mandibular vein puncture or cardiac puncture at the following time points: 5, 15, 30, 60, 120, and 240 min post-dose. Plasma was separated in heparin-containing tubes and frozen. […] Concentration–time data were analyzed by standard non-compartmental and compartmental techniques using WinNonlin (version 7.0; Pharsight, Mountain View, CA). A one-compartmental model was used to perform simulations to predict the plasma concentration–time profile after subcutaneous doses of 150, 300, and 450 mg/kg, alone and in combination with probenecid. A plasma free drug fraction of 2% of the total drug concentration was included in the simulations.

Where [2] appears, read: Mycobacteroides abscessus, ATCC19977, reference strain ATCC 19977, read-out: MIC.
[3] abbreviates: Mycobacteroides abscessus, clinical isolate 1N, read-out: MIC.
[4] abbreviates: Mycobacteroides abscessus, clinical isolate 2N, read-out: MIC.
Where [5] appears, read: Mycobacteroides abscessus, clinical isolate 3N, read-out: MIC.
The mark [6] stands for this setting: Mycobacteroides abscessus, clinical isolate 4N, read-out: MIC.
Where [7] appears, read: Mycobacteroides abscessus, clinical isolate 5N, read-out: MIC.
The mark [8] stands for this setting: Mycobacteroides abscessus, clinical isolate 8N, read-out: MIC.
Setting [9] is: Mycobacteroides abscessus, clinical isolate 11N, read-out: MIC.
Where [10] appears, read: Mycobacteroides abscessus, clinical isolate 13N, read-out: MIC.
[11] abbreviates: Mycobacteroides abscessus, clinical isolate 14N, read-out: MIC.
[12] abbreviates: Mycobacteroides abscessus, clinical isolate 202, read-out: MIC.
[13] abbreviates: Mycobacteroides abscessus, clinical isolate 203, read-out: MIC.
[14] abbreviates: Mycobacteroides abscessus, clinical isolate 204, read-out: MIC.
[15] abbreviates: Mycobacteroides abscessus, clinical isolate 214, read-out: MIC.
Setting [16] is: Mycobacteroides abscessus, clinical isolate 215, read-out: MIC.
Setting [17] is: Mycobacteroides abscessus, clinical isolate JH1801, read-out: MIC.
Setting [18] is: Mycobacteroides abscessus, clinical isolate JH1802, read-out: MIC.
[19] abbreviates: Mycobacteroides abscessus, clinical isolate JHH2, read-out: MIC.
Where [20] appears, read: Mycobacteroides abscessus, clinical isolate JHH4, read-out: MIC.
Where [21] appears, read: Mycobacteroides abscessus, clinical isolate JHH9, read-out: MIC.
Setting [22] is: Mycobacteroides abscessus, clinical isolate JHHKB, read-out: MIC.

≈ marks a conversion by molar mass, not a printed value. Where two headings read alike, the source gives them in different places.

With `C[C@@H](O)[C@H]1C(=O)N2C(C(=O)O)=C([C@H]3CCCO3)S[C@H]12` [Faropenem], in data set [1], the half-life in mice was 11.4 min. In addition, the MIC with M. abscessus (setting [2]) was found to be 512 µg/mL (≈ 1790 µM); with M. abscessus (setting [3]) it was 256 µg/mL (≈ 897 µM); with M. abscessus (setting [4]), 256 µg/mL (≈ 897 µM); with M. abscessus (setting [5]), 256 µg/mL (≈ 897 µM); in the data set on M. abscessus (setting [6]), 256 µg/mL (≈ 897 µM); in the data set on M. abscessus (setting [7]), 512 µg/mL (≈ 1790 µM). Besides, the MIC with M. abscessus (setting [8]) came out at 512 µg/mL (≈ 1790 µM); in the data set on M. abscessus (setting [9]), 512 µg/mL (≈ 1790 µM); in the data set on M. abscessus (setting [10]) it was 64 µg/mL (≈ 224 µM); in the data set on M. abscessus (setting [11]), 512 µg/mL (≈ 1790 µM); in the data set with M. abscessus (setting [12]), 512 µg/mL (≈ 1790 µM); with M. abscessus (setting [13]), 128 µg/mL (≈ 449 µM). Besides, the minimal inhibitory concentration (MIC) in the data set with M. abscessus (setting [14]) is 512 µg/mL (≈ 1790 µM); in the data set on M. abscessus (setting [15]), 128 µg/mL (≈ 449 µM); with M. abscessus (setting [16]), 512 µg/mL (≈ 1790 µM); in the data set with M. abscessus (setting [17]), 512 µg/mL (≈ 1790 µM); with M. abscessus (setting [18]) it was 256 µg/mL (≈ 897 µM); in the data set on M. abscessus (setting [19]) it was 512 µg/mL (≈ 1790 µM). The MIC in the data set on M. abscessus (setting [20]), in the data set with M. abscessus (setting [21]) and with M. abscessus (setting [22]) was 512 µg/mL (≈ 1790 µM) each time. For the same molecule, in the data set with M. abscessus (Mycobacteroides abscessus), the MIC50 turned out to be 512 µg/mL (≈ 1790 µM). The MIC90 in the data set on M. abscessus (Mycobacteroides abscessus) was determined as 512 µg/mL (≈ 1790 µM).

In the case of `C[C@@H](O)[C@H]1C(=O)N2C(C(=O)O)=C(SCCN=CN)C[C@H]12` [Imipenem], the MIC came to 8 µg/mL (≈ 26.7 µM) in the data set on M. abscessus (setting [2]); 8 µg/mL (≈ 26.7 µM) with M. abscessus (setting [3]); 8 µg/mL (≈ 26.7 µM) in the data set with M. abscessus (setting [4]); 8 µg/mL (≈ 26.7 µM) in the data set on M. abscessus (setting [5]); 16 µg/mL (≈ 53.4 µM) in the data set with M. abscessus (setting [6]); 16 µg/mL (≈ 53.4 µM) with M. abscessus (setting [7]). Also, the minimal inhibitory concentration (MIC) came out at 32 µg/mL (≈ 107 µM) in the data set with M. abscessus (setting [8]); 32 µg/mL (≈ 107 µM) with M. abscessus (setting [9]); 8 µg/mL (≈ 26.7 µM) with M. abscessus (setting [10]); 32 µg/mL (≈ 107 µM) with M. abscessus (setting [11]); 16 µg/mL (≈ 53.4 µM) in the data set on M. abscessus (setting [12]); 32 µg/mL (≈ 107 µM) in the data set with M. abscessus (setting [13]). For the same molecule, the MIC in the data set with M. abscessus (setting [14]) was 32 µg/mL (≈ 107 µM); with M. abscessus (setting [15]), 8 µg/mL (≈ 26.7 µM); with M. abscessus (setting [16]), 16 µg/mL (≈ 53.4 µM); in the data set on M. abscessus (setting [17]), 16 µg/mL (≈ 53.4 µM); in the data set with M. abscessus (setting [18]) it was 16 µg/mL (≈ 53.4 µM); in the data set on M. abscessus (setting [19]) it was 32 µg/mL (≈ 107 µM). Further, the MIC in the data set on M. abscessus (setting [20]) was 16 µg/mL (≈ 53.4 µM); in the data set with M. abscessus (setting [21]), 16 µg/mL (≈ 53.4 µM); in the data set with M. abscessus (setting [22]) it was 256 µg/mL (≈ 855 µM). Besides, the MIC50 in the data set with M. abscessus (Mycobacteroides abscessus) turned out to be 16 µg/mL (≈ 53.4 µM). Besides, the MIC90 in the data set with M. abscessus (Mycobacteroides abscessus) was 32 µg/mL (≈ 107 µM). Moreover, in the data set on M. abscessus ATCC 19977, the Resistance frequency was 1.9 × 10^−7.

`C[C@@H](O)[C@@H]1C(=O)N2C(C(=O)O)=C(SC3CN(C4=NCCS4)C3)S[C@@H]12` [T405]: in the data set “in vivo”, the concentration at 5 min turned out to be 169 ng/mL, the concentration at 0.25 h worked out at 157 ng/mL, the concentration at 0.5 h was found to be 143 ng/mL and the concentration at 1 h turned out to be 65 ng/mL. Moreover, the concentration at 2 h in the data set “in vivo” came out at 25.1 ng/mL.

In the data set with M. abscessus (reference strain ATCC 19977), `NC(=O)[C@@H]1CC[C@@H]2CN1C(=O)N2OS(=O)(=O)O` [avibactam] came in with a minimum inhibitory concentration (MIC) of 256 µg/mL (≈ 965 µM).
